Source: patent US20100227921A1, “AMINO ACID AND PEPTIDE CARBAMATE PRODRUGS OF […] USES THEREOF” (SHIRE LLC, priority 2009, published 2010)
Where “and” joins values, the source holds several entries; their conditions need not be identical. Identical values can stand only once. Marks after values point to notes of the source that are not given here.

Legend:
[1] = Comparative bioavailability after oral administration to rats (plasma LC-MS-MS); assay type: in vivo
Method: Test substances, i.e., tapentadol or tapentadol valine carbamate were administered by oral gavage to groups of male Sprague Dawley rats.
Blood samples were taken at various times after administration and submitted to analysis for the parent drug and pro-drug using a validated LC-MS-MS assay. Pharmacokinetic parameters derived from the plasma analytical data were determined using Win Nonlin.

[2] = Comparative bioavailability after oral or intravenous administration to monkeys (plasma LC-MS-MS); assay type: in vivo, cynomolgus monkey; conditions: monkey, below the quantitative limit
Method: Test substances i.e., tapentadol and tapentadol valine carbamate were administered (either intravenously or orally) to a group of five male cynomolgus monkeys in a three way crossover design. The oral doses were given at 1 mg tapentadol base equivalents/kg while the intravenous dose was 0.5 mg/kg
Blood samples were taken at various times after administration and submitted to analysis for the parent drug and tapentadol valine carbamate using a validated LC-MS-MS assay. Pharmacokinetic parameters derived from the plasma analytical data were determined using Win Nonlin.

[3] = male rat, oral tapentadol 10 mg free base equiv/kg, individual animals 1-5 (5 outlier)

CC[C@@H](c1cccc(O)c1)[C@@H](C)CN(C)C (racemic) [Tapentadol, (−)-(1R,2R)-3-(3-dimethyl-amino-1-ethyl-2-methyl-propyl)-phenol]
Plasma concentration of tapentadol ([1]; male rat, oral tapentadol 10 mg free base equiv/kg, 6 h, individual animals 1-5 (5 outlier)): 1.38 ng/mL and 1.19 ng/mL and 1.25 ng/mL and 2.00 ng/mL and 5.77 ng/mL | Plasma concentration of tapentadol ([1]; male rat, oral tapentadol 10 mg free base equiv/kg, 8 h, individual animals 1-5 (5 outlier)): 0.991 ng/mL and 1.08 ng/mL and 0.684 ng/mL and 1.27 ng/mL and 5.15 ng/mL | Plasma concentration of tapentadol ([1]; male rat, oral tapentadol 10 mg free base equiv/kg, 12 h, individual animals 1-5 (5 outlier)): BLQ (BLQ Values less than level of quantification (LOQ, <0.5 ng/mL)) | Plasma concentration of tapentadol ([1]; male rat, oral tapentadol 10 mg free base equiv/kg, 24 h, individual animals 1-5): BLQ (BLQ Values less than level of quantification (LOQ, <0.5 ng/mL)) | AUCt of tapentadol [1, 3]: 15.4 ng·h/mL and 15.3 ng·h/mL and 14.2 ng·h/mL and 20.6 ng·h/mL and 151 ng·h/mL | Cmax of tapentadol [1, 3]: 3.98 ng/mL and 3.61 ng/mL and 5.21 ng/mL and 5.87 ng/mL and 70.5 ng/mL | T>50%Cmax of tapentadol [1, 3]: 1.5 h (2×) and 1.0 h and 0.5 h | Tmax of tapentadol [1, 3]: 4 h | t½ of tapentadol ([1]; male rat, oral tapentadol 10 mg free base equiv/kg, individual animals 1-5 (5 outlier; animals 1 and 4 estimates)): 6.13^c h and 2.30 h and 3.11 h and 3.83^c h and 2.59 h | AUC of tapentadol ([1]; male rat, oral tapentadol 10 mg free base equiv/kg, individual animals 1-5 (5 outlier; animals 1 and 4 estimates, extrapolated portion >25%)): 24.6^c ng · h/mL and 18.4 ng · h/mL and 17.4 ng · h/mL and 27.8^c ng · h/mL and 156 ng · h/mL | T>50%Cmax of tapentadol ([1]; male rat, oral tapentadol 10 mg free base equiv/kg, median, animal 5 excluded): 1.5^a h | Plasma concentration of tapentadol ([1]; male rat, oral tapentadol valine carbamate 10 mg tapentadol free base equiv/kg, 0.5 h, individual animals 6-10): BLQ (BLQ Values less than LOQ (<0.5 ng/mL)) | Plasma concentration of tapentadol ([1]; male rat, oral tapentadol valine carbamate 10 mg tapentadol free base equiv/kg, 1 h, individual animals 6-10): BLQ (BLQ Values less than LOQ (<0.5 ng/mL)) | Plasma concentration of tapentadol ([1]; male rat, oral tapentadol valine carbamate 10 mg tapentadol free base equiv/kg, 2 h, individual animals 6-10): BLQ (BLQ Values less than LOQ (<0.5 ng/mL)) | Plasma concentration of tapentadol ([1]; male rat, oral tapentadol valine carbamate 10 mg tapentadol free base equiv/kg, 3 h, individual animals 6-10): BLQ (BLQ Values less than LOQ (<0.5 ng/mL)) | Plasma concentration of tapentadol ([1]; male rat, oral tapentadol valine carbamate 10 mg tapentadol free base equiv/kg, 4 h, individual animals 6-10): BLQ (BLQ Values less than LOQ (<0.5 ng/mL)) | Plasma concentration of tapentadol ([1]; male rat, oral tapentadol valine carbamate 10 mg tapentadol free base equiv/kg, 12 h, individual animals 6-10): BLQ (BLQ Values less than LOQ (<0.5 ng/mL)) | Plasma concentration of tapentadol ([1]; male rat, oral tapentadol valine carbamate 10 mg tapentadol free base equiv/kg, 24 h, individual animals 6-10): BLQ (BLQ Values less than LOQ (<0.5 ng/mL)) | T>50%Cmax of tapentadol ([1]; male rat, oral tapentadol valine carbamate 10 mg tapentadol free base equiv/kg, individual animals 6-10): 2 h | T>50%Cmax of tapentadol ([1]; male rat, oral tapentadol valine carbamate 10 mg tapentadol free base equiv/kg, median): 2^a h | concentration at 0.5 h ([1]; male, Sprague Dawley, rat, plasma, po, 10 mg free base equiv/kg, oral tapentadol 10 mg free base equiv/kg, 0.5 h, mean, animal 5 excluded, read-out: Plasma concentration of tapentadol): 2.73 ng/mL | concentration at 1 h ([1]; male, Sprague Dawley, rat, plasma, po, 10 mg free base equiv/kg, oral tapentadol 10 mg free base equiv/kg, 1 h, mean, animal 5 excluded, read-out: Plasma concentration of tapentadol): 4.34 ng/mL | concentration at 2 h ([1]; male, Sprague Dawley, rat, plasma, po, 10 mg free base equiv/kg, oral tapentadol 10 mg free base equiv/kg, 2 h, mean, animal 5 excluded, read-out: Plasma concentration of tapentadol): 2.44 ng/mL | concentration at 3 h ([1]; male, Sprague Dawley, rat, plasma, po, 10 mg free base equiv/kg, oral tapentadol 10 mg free base equiv/kg, 3 h, mean, animal 5 excluded, read-out: Plasma concentration of tapentadol): 1.82 ng/mL | concentration at 4 h ([1]; male, Sprague Dawley, rat, plasma, po, 10 mg free base equiv/kg, oral tapentadol 10 mg free base equiv/kg, 4 h, mean, animal 5 excluded, read-out: Plasma concentration of tapentadol): 2.39 ng/mL | concentration at 6 h ([1]; male, Sprague Dawley, rat, plasma, po, 10 mg free base equiv/kg, oral tapentadol 10 mg free base equiv/kg, 6 h, mean, animal 5 excluded, read-out: Plasma concentration of tapentadol): 1.45 ng/mL | concentration at 8 h ([1]; male, Sprague Dawley, rat, plasma, po, 10 mg free base equiv/kg, oral tapentadol 10 mg free base equiv/kg, 8 h, mean, animal 5 excluded, read-out: Plasma concentration of tapentadol): 1.01 ng/mL | concentration at 12 h ([1]; male, Sprague Dawley, rat, plasma, po, 10 mg free base equiv/kg, oral tapentadol 10 mg free base equiv/kg, 12 h, individual animals 1-5 (5 outlier), read-out: Plasma concentration of tapentadol): 1.09 ng/mL | AUC ([1]; male, Sprague Dawley, rat, plasma, po, 10 mg free base equiv/kg, oral tapentadol 10 mg free base equiv/kg, mean, animal 5 and estimates excluded): 17.9 ng·h/mL | half-life ([1]; male, Sprague Dawley, rat, plasma, po, 10 mg free base equiv/kg, oral tapentadol 10 mg free base equiv/kg, mean, animal 5 and estimates excluded, read-out: t½ of tapentadol (converted)): 2.64 h | AUC(0-t) ([1]; male, Sprague Dawley, rat, plasma, po, 10 mg free base equiv/kg, oral tapentadol 10 mg free base equiv/kg, mean, animal 5 excluded, read-out: AUCt of tapentadol): 16.4 ng·h/mL | Cmax ([1]; male, Sprague Dawley, rat, plasma, po, 10 mg free base equiv/kg, oral tapentadol 10 mg free base equiv/kg, mean, animal 5 excluded, read-out: Cmax of tapentadol): 4.67 ng/mL | Tmax ([1]; male, Sprague Dawley, rat, plasma, po, 10 mg free base equiv/kg, oral tapentadol 10 mg free base equiv/kg, median, animal 5 excluded, read-out: Tmax of tapentadol): 1 h | Plasma levels of tapentadol ([2]; after giving the drug (tapentadol)): < 0.5 ng/mL | Plasma levels of tapentadol ([2]; after giving the prodrug (tapentadol valine carbamate)): < 0.5 ng/mL
